Measurements published in patent US6552088B2, “Biphenyl derivatives” (Hoffmann-La Roche Inc., priority 1999, dated 2003).

How the values were obtained:
human NK-1 receptor = target: T1, human NK-1 receptor (Homo sapiens, UniProt P25103); assay: Affinity for the NK-1 receptor, [3H] substance P displacement binding assay; details: human NK-1 receptors in CHO cells (Semliki virus expression system); [3H] substance P 0.6 nM; 60 min at room temperature; read-out: affinity to the NK-1 receptor, given as pKi (converted)
T1 construct: expressed in transfected cells; host or cells: CHO cells infected using the Semliki virus expression system; membrane suspension
Procedure: The affinity of test compounds for the NK-1 receptor was evaluated at human NK-1 receptors in CHO cells infected with the human NK-1 receptor (using the Semliki virus expression system) and radiolabelled with [3H] substance P (final concentration 0.6 nM). Binding assays were performed in HEPES buffer (50 mM, pH 7.4) containing BSA (0.04%) leupeptin (8 μg/ml), MnCl2 (3 mM) and phosphoramidon (2 μM). Binding assays consisted of 250 μl of membrane suspension (1.25×10^5 cells/assay tube), […] of buffer of displacing agent and 125 μl of [3H] substance P. Displacement curves were determined with at least seven concentrations of the compound. The assay tubes were incubated for 60 min at room temperature after which time the tube contents were rapidly filtered under vacuum through GF/C filters presoaked for 60 min with PEI (0.3%) with 2×2 ml washed of HEPES buffer (50 mM, pH 7.4). The radioactivity retained on the filters was measured by scintillation counting. All assays were performed in triplicate in at least 2 separate experiments.

T1 sequence (P25103 whole entry): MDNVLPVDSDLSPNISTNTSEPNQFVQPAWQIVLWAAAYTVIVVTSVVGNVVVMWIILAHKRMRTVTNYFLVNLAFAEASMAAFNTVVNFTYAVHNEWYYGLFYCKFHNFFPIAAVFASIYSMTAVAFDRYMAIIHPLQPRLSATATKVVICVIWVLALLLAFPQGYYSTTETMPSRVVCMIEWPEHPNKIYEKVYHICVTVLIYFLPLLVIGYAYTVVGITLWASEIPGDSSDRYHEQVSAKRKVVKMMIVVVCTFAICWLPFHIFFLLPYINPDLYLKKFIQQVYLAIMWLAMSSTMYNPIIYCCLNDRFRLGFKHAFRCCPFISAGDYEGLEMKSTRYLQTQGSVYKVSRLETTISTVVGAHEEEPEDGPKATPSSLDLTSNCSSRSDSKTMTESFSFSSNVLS

CN(Cc1cc(Cl)cc(Cl)c1)C(=O)c1ccccc1-c1ccccc1 [Example 2, Biphenyl-2-carboxylic acid (3,5-dichloro-benzyl)-methyl-amide]
melting point: 126 to 128 °C

Cc1cc(CN(C)C(=O)c2ccccc2-c2ccccc2)cc(C(F)(F)F)c1 [Example 3, Biphenyl-2-carboxylic acid methyl-(3-methyl-5-trifluoromethyl-benzyl)-amide]
melting point: 126.7 to 127.1 °C

Cc1ccccc1-c1ccc(N)cc1N(C)C(=O)C(C)(C)c1cc(C(F)(F)F)cc(C(F)(F)F)c1 [Example 18, N-(4-Amino-2′-methyl-biphenyl-2-yl)-2-(3,5-bis-trifluoromethyl-phenyl)-N-methyl-isobutyramide]
Ki (human NK-1 receptor): 5.25 nM

CNc1ccc(-c2ccccc2C)c(N(C)C(=O)C(C)(C)c2cc(C(F)(F)F)cc(C(F)(F)F)c2)c1 [Example 20, 2-(3,5-Bis-trifluoromethyl-phenyl)-N-methyl-N-(2′-methyl-4-methylamino-biphenyl-2-yl)-isobutyramide]
Ki (human NK-1 receptor): 9.77 nM

Cc1ccccc1-c1cc(N2CCN(C)CC2)ccc1C(=O)N(C)Cc1cc(C(F)(F)F)cc(C(F)(F)F)c1 [Example 27, 2′-Methyl-5-(4-methyl-piperazin-1-yl)-biphenyl-2-carboxylic acid (3,5-bis-trifluoromethyl-benzyl)-methyl-amide]
Ki (human NK-1 receptor): 1.45 nM
